This is an account of results in patent US20250122225A1, “MASP-2 INHIBITORS AND METHODS OF USE” (Omeros Corporation, priority 2023, published 2025).

Holding throughout (assay type): biochemical
For assay [1], the system named is Lectin Pathway Activation in human serum. In words: Lectin Pathway Activation (LPA) assay in human serum, mannan-coated ELISA plate, C4c detection. The following applies: 1% human serum, read-out: LPA Functional Activity (IC50). As for the experimental part: Lectin Pathway Activation (LPA) Assay in Human Serum Treated with Compounds
A microtiter ELISA plate was coated with mannan (1 mg/ml) from Saccharomyces cerevisiae (Sigma-Aldrich®, M7504) overnight at 4° C. in coating buffer [33.3 mM Na2CO3, 166.67 mM NaHCO3]. The plate was blocked with 5% bovine serum albumin (BSA) (Sigma-Aldrich®, A3294) in 1×PBST [Phosphate Buffered Saline Solution (1.06 mM KH2PO4, 155.2 mM NaCl, 2.97 mM Na2HPO4^−·7H2O, pH 7.4), 0.05% Tween-20] shaking for 2 hours at room temperature. 1% human serum was incubated with serial dilutions of small compounds in 1× LPA+ Buffer [20 mM Hepes, pH 7.4, 140 mM NaCl, 2 mM MgCl2 (6H2O)] and incubated for 5 minutes at room temperature. 40 μL of this mixture was then added to the plate, and the plate was incubated at room temperature for 55 mins. Next, the reaction was stopped by adding 20 μL of EDTA Stop Solution [20 mM Hepes, pH7.4, 140 mM NaCl, 150 mM EDTA] to the plate. The plate was then washed 10× in wash buffer 1×PBST; 40 μL of Rabbit Anti Human C4c Antibody [Dako®, Q0369] diluted 1:20000 in wash buffer was added; and the plate was incubated shaking at room temperature for 30 minutes. The plate was washed [5× times]; 40 μL of Goat Anti-rabbit Antibody-HRP Conjugate [Southern Biotech®, 4050-05] diluted 1:10000 in wash buffer was added; and the plate was incubated shaking at room temperature for 30 minutes. After that, the plate was washed five times; 40 µL/well of Amplex® UltraRed Substrate Solution [1× LPA Buffer, 10 mM Amplex® UltraRed Stock Solution [Thermo Fisher Sci.®, A36006], 3% stabilized hydrogen peroxide [Sigma Aldrich®, 216763] was added; the plate was incubated at room temperature for 16 minutes; the reaction was stopped by adding 8 µL/well of Amplex® UltraRed Stop Solution [Thermo Fisher Sci.®, A33855] in 100% EtOH. Finally, the plate was read for fluorescence at Ex: 550 nm, Em: 580 nm on the i3x Microplate Reader.

A further assay concerns the target T1, human α-thrombin (Homo sapiens, UniProt P00734).
T1 construct: enzyme (human α-thrombin (BioPharm® Lab.)) in assay buffer; purchased BioPharm® Lab
The assay is described as follows: Enzymatic assay for thrombin (fluorogenic peptide substrate Boc-VPR-AMC). Summed up: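 Human α-thrombin was run with the fluorogenic substrate Boc-VPR-AMC in 20 mM Hepes pH 7.4, 140 mM NaCl, 0.1% Tween 20 at room temperature for 20 min, then stopped with 0.1 M acetic acid. % activity was normalized to DMSO and no-enzyme controls. Under linear conditions IC50 equalled Ki, except for tight-binding inhibitors.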

The next assay has as its target T2, MASP-2 (CCP1-CCP2-SP) (Homo sapiens, UniProt O00187).
T2 construct: 15 μL of Enzyme MASP-2 (CCP1-CCP2-SP) in Assay Buffer
The assay is described as follows: Enzymatic assay for MASP-2 inhibitory activity (fluorogenic substrate). Summed up:
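MASP-2 (CCP1-CCP2-SP) cleaved a fluorogenic substrate based on the C2 cleavage site in 20 mM HEPES pH 7.4, 140 mM NaCl, 0.1% Tween 20 at room temperature. After 20 min the reaction was stopped with 0.1 M acetic acid and fluorescence read. % activity was normalized to DMSO-only and no-enzyme controls; IC50 taken as Ki.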

Structures can show the parent of a compound that is named as a salt.

T2 sequence (O00187 445-686 limits assumed): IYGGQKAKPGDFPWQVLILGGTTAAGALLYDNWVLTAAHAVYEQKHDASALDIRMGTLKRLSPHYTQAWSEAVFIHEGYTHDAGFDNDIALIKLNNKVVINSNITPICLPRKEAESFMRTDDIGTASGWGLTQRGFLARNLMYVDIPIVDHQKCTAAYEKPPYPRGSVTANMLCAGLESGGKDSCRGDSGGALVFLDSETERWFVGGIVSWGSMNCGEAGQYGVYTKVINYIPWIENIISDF
T2 sequence (O00187 287-444 partner limits assumed): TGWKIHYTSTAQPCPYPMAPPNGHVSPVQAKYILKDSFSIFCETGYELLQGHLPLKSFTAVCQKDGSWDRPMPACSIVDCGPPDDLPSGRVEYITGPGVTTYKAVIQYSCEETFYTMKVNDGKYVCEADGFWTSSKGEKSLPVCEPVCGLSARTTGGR

In general, IC50 refers to the concentration that gives 50% inhibition. The term Ki denotes a dissociation constant, usually derived from enzyme kinetics or from competition with a known ligand. High values mean lower affinity, low ones higher affinity. Turning to `Cc1nc(N)ccc1CNC(=O)[C@@H]1C[C@H](Cc2ccccc2)c2cnc(NC3CCC3)c(=O)n21` [Compound 140, (6S,8S)-N-((6-amino-2-methylpyridin-3-yl)methyl)-8-benzyl-3-(cyclobutylamino)-4-oxo-4,6,7,8-tetrahydropyrrolo[1,2-a]pyrazine-6-carboxamide], in assay [1], the half-maximal inhibitory concentration (IC50) is less than 50 nM. Further, the Ki on human α-thrombin and on MASP-2 (CCP1-CCP2-SP) was less than 500 nM in each case.
`Cc1cc(C)cc(CNc2nc(Cl)c3n(c2=O)[C@H](C(=O)NCc2cc4cnccc4[nH]2)C[C@@H]3C)c1` [Compound 132, (6S,8S)-N-((1H-pyrrolo[3,2-c]pyridin-2-yl)methyl)-1-chloro-3-((3,5-dimethylbenzyl)amino)-8-methyl-4-oxo-4,6,7,8-tetrahydropyrrolo[1,2-a]pyrazine-6-carboxamide]: the values for the Ki on human α-thrombin and at MASP-2 (CCP1-CCP2-SP) were greater than 25000 nM and less than 500 nM, respectively.
In the same order, the values of `CCc1cccc(CNc2ncc3n(c2=O)[C@H](C(=O)NCc2ccc(N)nc2C)CC3)c1` [Compound 46, (S)-N-((6-amino-2-methylpyridin-3-yl)methyl)-3-((3-ethylbenzyl)amino)-4-oxo-4,6,7,8-tetrahydropyrrolo[1,2-a]pyrazine-6-carboxamide] are less than 500 nM and less than 500 nM.
Taken in the same sequence, the figures for `O=C(NCc1cc2c(s1)CNC2)[C@@H]1CC2(CC2)c2cnc(NCc3ccccc3)c(=O)n21` [Compound 127, (S)-3′-(benzylamino)-N-((5,6-dihydro-4H-thieno[2,3-c]pyrrol-2-yl)methyl)-4′-oxo-6′,7′-dihydro-4′H-spiro[cyclopropane-1,8′-pyrrolo[1,2-a]pyrazine]-6′-carboxamide trifluoroacetate] were 2500 to 10000 nM and less than 500 nM.
In the same order, the values of `CC[C@H]1C[C@@H](C(=O)NCc2ccc(N)nc2)n2c1cnc(NCc1cc(C)cc(C)c1)c2=O` [Compound 157, (6S,8S)-N-((6-aminopyridin-3-yl)methyl)-3-((3,5-dimethylbenzyl)amino)-8-ethyl-4-oxo-4,6,7,8-tetrahydropyrrolo[1,2-a]pyrazine-6-carboxamide] are less than 500 nM and less than 500 nM.
For `Cc1cc(C)cc(CNc2ncc3n(c2=O)[C@H](C(=O)NC(C)c2cc(Cl)ccc2-n2cnnn2)CC3)c1` (mixture of isomers) [Compound 283, (S)—N—((R/S)-1-(5-chloro-2-(1H-tetrazol-1-yl)phenyl)ethyl)-3-((3,5-dimethylbenzyl)amino)-4-oxo-4,6,7,8-tetrahydropyrrolo[1,2-a]pyrazine-6-carboxamide], the inhibition constant Ki at human α-thrombin and at MASP-2 (CCP1-CCP2-SP) was less than 500 nM throughout.
With `C[C@@H](NC(=O)[C@@H]1CCc2cnc(NCc3cccc(-c4ccccc4)c3)c(=O)n21)c1ccc(N)nc1` [Compound 201, (S)-3-(([1,1′-biphenyl]-3-ylmethyl)amino)-N-((R)-1-(6-aminopyridin-3-yl)ethyl)-4-oxo-4,6,7,8-tetrahydropyrrolo[1,2-a]pyrazine-6-carboxamide], the inhibitory constant (Ki) is greater than 25000 nM on human α-thrombin and less than 500 nM at MASP-2 (CCP1-CCP2-SP).
In the same order, the values of `Cc1nc(N)ccc1CNC(=O)[C@@H]1CCc2c(Cl)nc(NCc3cccc(CO)c3)c(=O)n21` [Compound 5, (S)-N-((6-amino-2-methylpyridin-3-yl)methyl)-1-chloro-3-((3-(hydroxymethyl)benzyl)amino)-4-oxo-4,6,7,8-tetrahydropyrrolo[1,2-a]pyrazine-6-carboxamide] are 500 to 2500 nM and less than 500 nM.
With `O=C(NCc1cc2cnccc2[nH]1)[C@@H]1CCc2cnc(NCCc3ccccc3)c(=O)n21` [Compound 248], the Ki on human α-thrombin and on MASP-2 (CCP1-CCP2-SP) was less than 500 nM in each case.
For `Cc1cc2[nH]c(CNC(=O)[C@@H]3C[C@H](Cc4ccccc4)c4cnc(NC5CCC5)c(=O)n43)cc2cn1` [Compound 139, (6S,8S)-8-benzyl-3-(cyclobutylamino)-N-((6-methyl-1H-pyrrolo[3,2-c]pyridin-2-yl)methyl)-4-oxo-4,6,7,8-tetrahydropyrrolo[1,2-a]pyrazine-6-carboxamide], the Ki on human α-thrombin is 10000 to 25000 nM; on MASP-2 (CCP1-CCP2-SP), less than 500 nM.
Taken in the same sequence, the figures for `CC(C)(O)c1cccc(CNc2ncc3n(c2=O)[C@H](C(=O)NCc2cc4cnccc4[nH]2)CC3)c1` [Compound 67, (S)-N-((1H-pyrrolo[3,2-c]pyridin-2-yl)methyl)-3-((3-(2-hydroxypropan-2-yl)benzyl)amino)-4-oxo-4,6,7,8-tetrahydropyrrolo[1,2-a]pyrazine-6-carboxamide] were 500 to 2500 nM and less than 500 nM.
In the same order, the values of `Cc1cccc([C@H](C)Nc2ncc3n(c2=O)[C@H](C(=O)NCc2cc4c(s2)CNC4)CC3)c1` [Compound 95, (S)-N-((5,6-dihydro-4H-thieno[2,3-c]pyrrol-2-yl)methyl)-4-oxo-3-(((S)-1-(m-tolyl)ethyl)amino)-4,6,7,8-tetrahydropyrrolo[1,2-a]pyrazine-6-carboxamide] are 500 to 2500 nM and less than 500 nM.
In the same order, the values of `Cc1ccc(F)c(CNc2nc(C#N)c3n(c2=O)[C@H](C(=O)NCc2ccc(N)nc2C)CC3)c1` [Compound 223, trifluoroacetate] are 2500 to 10000 nM and less than 500 nM.
Consider `Nc1ccc2c(n1)CC[C@H]2NC(=O)[C@@H]1CCc2cnc(NCc3cccc(-c4ccccc4)c3)c(=O)n21` [Compound 236], for which the values for the Ki at human α-thrombin and at MASP-2 (CCP1-CCP2-SP) were 500 to 2500 nM and less than 500 nM, respectively.
`Cc1nc(N)ccc1CNC(=O)[C@@H]1CCc2cnc(NCc3cccc(-c4ccccc4)c3)c(=O)n21` [Compound 220, (S)-3-(([1,1′-biphenyl]-3-ylmethyl)amino)-N-((6-amino-2-methylpyridin-3-yl)methyl)-4-oxo-4,6,7,8-tetrahydropyrrolo[1,2-a]pyrazine-6-carboxamide trifluoroacetate]: the inhibition constant Ki at human α-thrombin and on MASP-2 (CCP1-CCP2-SP) was less than 500 nM in each case.
As for `Cc1ccc(CNc2ncc3n(c2=O)[C@H](C(=O)NCc2cc4cnccc4[nH]2)CC3)cc1C` [Compound 44, (S)-N-((1H-pyrrolo[3,2-c]pyridin-2-yl)methyl)-3-((3,4-dimethylbenzyl)amino)-4-oxo-4,6,7,8-tetrahydropyrrolo[1,2-a]pyrazine-6-carboxamide], the Ki at human α-thrombin is 500 to 2500 nM; on MASP-2 (CCP1-CCP2-SP), less than 500 nM.
Taken in the same sequence, the figures for `Cc1cc(CNc2ncc3n(c2=O)[C@H](C(=O)N[C@H](C)c2ccc(N)nc2)CC3)cc(C(F)(F)F)c1` [Compound 203, (S)-N-((R)-1-(6-aminopyridin-3-yl)ethyl)-3-((3-methyl-5-(trifluoromethyl)benzyl)amino)-4-oxo-4,6,7,8-tetrahydropyrrolo[1,2-a]pyrazine-6-carboxamide] were 2500 to 10000 nM and less than 500 nM.
In the same order, the values of `Cc1cc(C)cc(CNc2nc(Cl)c3n(c2=O)[C@H](C(=O)NCc2cc4cnccc4[nH]2)CC3)c1` [Compound 1, (S)—N-((1H-pyrrolo[3,2-c]pyridin-2-yl)methyl)-1-chloro-3-((3,5-dimethylbenzyl)amino)-4-oxo-4,6,7,8-tetrahydropyrrolo[1,2-a]pyrazine-6-carboxamide] are 10000 to 25000 nM and less than 500 nM.
Regarding `CC[C@H]1C[C@@H](C(=O)NCc2ccc(N)nc2C)n2c1c(Cl)nc(NCc1ccccc1)c2=O` [Compound 134, (6S,8S)-N-((6-amino-2-methylpyridin-3-yl)methyl)-3-(benzylamino)-1-chloro-8-ethyl-4-oxo-4,6,7,8-tetrahydropyrrolo[1,2-a]pyrazine-6-carboxamide], the Ki is 500 to 2500 nM on human α-thrombin and less than 500 nM at MASP-2 (CCP1-CCP2-SP).
Consider `Cc1cc(F)cc(CNc2ncc3n(c2=O)[C@H](C(=O)NCc2cnc4[nH]ccc4c2)CC3)c1` [Compound 183, (S)-N-((1H-pyrrolo[2,3-b]pyridin-5-yl)methyl)-3-((3-fluoro-5-methylbenzyl)amino)-4-oxo-4,6,7,8-tetrahydropyrrolo[1,2-a]pyrazine-6-carboxamide], for which the inhibitory constant (Ki) fell in the range of 2500 to 10000 nM at human α-thrombin and 500 to 2500 nM at MASP-2 (CCP1-CCP2-SP).
`CCc1cccc(CNc2nc(Cl)c3n(c2=O)[C@H](C(=O)NCc2ccc(N)nc2C)CC3)c1` [Compound 4]: the Ki at human α-thrombin was 500 to 2500 nM; on MASP-2 (CCP1-CCP2-SP) it was less than 500 nM.
